“Also recorded” adds a separate entry of the source.
Experiments:
ASAL = target: T1, ASAL (Allium sativum, UniProt P83886); assay type: binding; conditions: read-out: Dissociation constant (Kd)
T1 construct: gene LECASAL; native 25-kDa homodimer
T1 sequence (P83886 31-140): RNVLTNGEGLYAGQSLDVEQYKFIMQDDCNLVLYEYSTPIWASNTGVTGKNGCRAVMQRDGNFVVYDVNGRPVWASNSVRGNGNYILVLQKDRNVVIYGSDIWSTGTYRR

mASAL = target: T2, mASAL (Allium sativum, UniProt P83886, G129D/INS129NSNN); assay: biochemical
T2 construct: gene LECASAL
Procedure: Dissociation Constant (Kd) of mannose-bound complex using fluorescence spectroscopy
mASAL and ASAL were separately incubated at 25°C on a Hitachi F-7000 spectrofluorimeter using a Sigma cuvette (volume: 1 ml; pathlength: 1 cm). The solutions were titrated with 10 mM mannose in phosphate buffer (pH 7.2) by adding a small aliquot at a time. Following each addition, the solution was stirred using a magnetic stirrer for 1 min and the fluorescence emission spectrum was recorded between 300 and 400 nm using 295 nm as the excitation wavelength. The excitation and emission band passes were each 5 nm. […] The equation for single-site ligand binding measured through changes in the spectroscopic signal [20] is given by [drawing 1] (1) where ΔF represents the increase or decrease in fluorescence intensity at a given concentration of the ligand, K d is the dissociation constant, and A = K dΔ Fmax. We used equation (1) to calculate the dissociation constant (K d) for binding of mannose, glucose and NAG to mASAL and ASAL.

R. solani = conditions: 4 µg protein, 40 hours at 25°C
A. brassicicola = conditions: 4 µg protein, 40 hours at 25°C
[1] = Man9GlcNAc2Asn, at 25°C; cited from earlier work
Lipaphis erysimi = assay: Insect bioassay with artificial diet; assay type: in vivo; conditions: second instar nymphs, survival recorded for 72 h, Probit analysis
Procedure: Insect bioassays were conducted using an artificial diet [9]–[11]. Twenty second instar nymphs of Lipaphis erysimi were used in multiple sets. Polycarbonate petriplates (perforated for air passage at the bottom) were used as a bioassay cage. Nymphs were released into the plates, and the upper edges of the plates were covered with fully stretched parafilm. A modified synthetic diet mixture of 200 µl, supplemented with different concentrations of ASAL and mASAL (5, 10, 15, 20, 25 µg/ml), was dispensed on the stretched parafilm membrane. Another Parafilm membrane was stretched onto this in order to form a pouch. For control plates, 20-mM TrisCl (pH 7.4) was added to the artificial diet instead of experimental proteins. For another set of control experiments, aphids were fed with only 20 mM TrisCl (pH 7.4) without the artificial diet. Each set of experiments for each dose was repeated four times. Data regarding the numbers of nymphs surviving were recorded at 12-h intervals for 72 h. The LC50 values for the toxicity against mustard aphids were determined by Probit analysis ( Table 2 ).

F. oxysporum = conditions: 4 µg protein, 40 hours at 25°C
rabbit erythrocytes = assay: Hemagglutination assay; assay type: cell-based; conditions: 50 to 6.25 µg/ml, 2% rabbit erythrocytes, 1 hour at 37°C
Procedure: Blood was collected from the rabbit into a syringe pre-filled with 500-µl 0.9% NaCl solution and the blood was immediately transferred to a culture tube pre-filled with 0.9% saline. Subsequently, the erythrocyte solution was prepared by repeated washing with 0.9% saline and spun at 2500 g for 10 minutes at 4°C. After each cycle, the supernatant was carefully removed. […] The erythrocytes were resuspended in 0.9% saline as a 2% (3.5×10^8 cells/ml) cell suspension. Hemagglutination activity of the purified mASAL and /or ASAL was assayed in a 96-well microtiter U-plate according to a 2-fold serial dilution procedure (50, 25, 12.5, 6.25 µg/ml). The samples were diluted with PBS (137 mM NaCl, 2.7 mM KCl, 10 mM Na2HPO4, 1.8 mM KH2PO4; pH 7.4) at which point 50 µl of protein from each dilution was mixed with 50 µl of a 2% suspension of rabbit erythrocytes.

R. solani hyphae = assay: Immunolocalization assay with anti-ASAL antibody; assay type: cell-based, Rhizoctonia solani; conditions: 4 µg protein, 40 hours at 25°C
[2] = target: the molecule itself; assay: SEC; Biosep-SEC-S-2000 column, 0.1 M sodium phosphate pH 6.8, 2 ml/min; native ASAL as control; data not shown

For OC[C@H]1OC(O)[C@H](O)[C@@H](O)[C@@H]1O (stereo partly drawn) [D-glucose], the Kd (ASAL) was 140 nM and the Kd (mASAL) was 160 nM.

In the case of Allium sativum leaf agglutinin [ASAL], the “propidium iodide uptake (fluorescence, membrane permeabilization)” value (shortened to “propidium iodide uptake”) (R. solani) is listed as “excluded propidium iodide”, the “propidium iodide uptake” value (A. brassicicola) is listed as “excluded propidium iodide” and the “binding affinity Ka” value [1] is listed as 1.2e+06 M⁻¹. For the same molecule, the LC50 value (Lipaphis erysimi) was 20.7 µg/mL, the “propidium iodide uptake” value (F. oxysporum) was “excluded propidium iodide” and the hemagglutination activity (rabbit erythrocytes) was “agglutinated cells form a carpet”. For the same molecule, the “binding to fungal membrane (FITC green fluorescence)” value (R. solani hyphae) was “absence of any signal; also recorded: no signals were generated”.

In the case of OC[C@H]1OC(O)[C@@H](O)[C@@H](O)[C@@H]1O (stereo partly drawn) [Mannose, D-mannose], the Kd (ASAL) is reported as 60 nM and the Kd (mASAL) is reported as 120 nM.

For CC(=O)N[C@H]1C(O)O[C@H](CO)[C@@H](O)[C@@H]1O (some centres unmarked) [NAG, N-acetyl glucosamine], the Kd (ASAL) was 300 nM and the Kd (mASAL) was 110 nM.

B1: Allium sativum leaf agglutinin (natural protein)
chain: RNLLTNGEGLYAGQSLDVEQYKFIMQDDCNLVLYEYSTPIWASNTGVTGKNGCRAVMQRDGNFVVYDVNGRPVWASNSVRGNGNYILVLQKDRNVVIYGSDIWSTGT
With B1 the “stoichiometry N” value [2] was 2.

— PMC3072408 (PLoS ONE, 2011)
